Test results: EP3833345B1, “SMALL MOLECULE-INHIBITORS OF 6-PHOSPHOFRUCTO-1-KINASE FOR REDUCING LACTATE GENERATION BY CANCER CELLS” (Kemijski Institut, priority 2018, dated 2020)
“Also recorded” adds a separate entry of the source.

Columns and labels:
[1] = system: Jurkat cells; assay: lactate excretion by Jurkat cells (enzymatic L-lactic acid kit); type: cell-based, human
Experimental: The cells were incubated in 1 mL volume (24 well plates) at 5% CO2 and 37°C. The inhibitors were added in 100 µM concentration. As a control, equivalent amount of DMSO as used for the addition of inhibitors was supplemented to the medium. The tests started with 1×10^5 cells per mL. Extracellular lactate excreted by the Jurkat cells was measured in the supernatant of the growth medium after the cells were removed by centrifugation at 1500 rpm for 5 minutes. Lactate concentration was determined enzymatically using L-Lactatic acid kit (K-LATE, Megazyme, Ireland).
Measurements of lactate excretion in the tumorigenic Jurkat cells and the cells treated with two selected inhibitors at different concentrations were repeated by more detailed measurements. The growth conditions were identical to those described in Experiment 2. No significant difference in lactate excretion could be observed by the treated and untreated cells during the initial stage of growth that lasted for approximately 12 hours. Later on lactate excretion by the Jurkat cells ceased in the presence of both inhibitors.

[2] = system: Jurkat cells; assay: growth and survival of Jurkat cells (Countess, Trypan blue); type: cell-based
Experimental: The effects of both inhibitors were tested also on growth of the non-adherent Jurkat cells. Total amount of cells and the number of dead cells was determined by the Countess (Invitrogen, Carlsbad, CA). […].

[3] = system: Jurkat cells; assay: NADH levels in Jurkat cells (NADH/NAD fluorometric assay kit); type: cell-based, human; conditions: 24 hours after addition, different concentrations
Experimental: By inhibiting modified PFK-M enzyme in the cancer cells, glycolytic flux should be decreased and concomitantly NADH levels reduced. To verify that, the amounts of reduced pyridine nucleotide was measured by NADH/NAD fluorometric assay kit (Abcam). The Jurkat cells were seeded into the wells of 96 wells plate at 5×10^5 cells per mL. The untreated cells (control) and the cells with specified amounts of added Inhibitors No. 3 and No. 9 were incubated for 24 hours.

[4] = system: MDA-MB-231 cells; assay: cytotoxicity in MDA-MB-231 cells (LDH kit); type: cell-based
Experimental: Lactate generation, growth yield and survival under normal and inhibitory conditions of three different tumorigenic cells lines were determined in more detailed measurements. […] Cytotoxicity was measured by the Lactate dehydrogenase (LDH) kit (Roche).
Inhibitors No. 23, 29, 30 and 31 were tested for preventing lactate generation by the MDA-MB-231 cells.

[5] = system: Jurkat cells; assay: long-term fed-batch cultivation of Jurkat cells (18 days); conditions: 100 µM
[6] = biological target: T1, native human (85 kDa) 6-phosphofructo-1-kinase (PFK-M), nPFK-M (Homo sapiens, UniProt P08237); assay: in vitro inhibition of purified recombinant native PFK-M enzyme; conditions: inhibitor range 10 - 50 µM, Figure 3
T1 sequence (P08237 1-780): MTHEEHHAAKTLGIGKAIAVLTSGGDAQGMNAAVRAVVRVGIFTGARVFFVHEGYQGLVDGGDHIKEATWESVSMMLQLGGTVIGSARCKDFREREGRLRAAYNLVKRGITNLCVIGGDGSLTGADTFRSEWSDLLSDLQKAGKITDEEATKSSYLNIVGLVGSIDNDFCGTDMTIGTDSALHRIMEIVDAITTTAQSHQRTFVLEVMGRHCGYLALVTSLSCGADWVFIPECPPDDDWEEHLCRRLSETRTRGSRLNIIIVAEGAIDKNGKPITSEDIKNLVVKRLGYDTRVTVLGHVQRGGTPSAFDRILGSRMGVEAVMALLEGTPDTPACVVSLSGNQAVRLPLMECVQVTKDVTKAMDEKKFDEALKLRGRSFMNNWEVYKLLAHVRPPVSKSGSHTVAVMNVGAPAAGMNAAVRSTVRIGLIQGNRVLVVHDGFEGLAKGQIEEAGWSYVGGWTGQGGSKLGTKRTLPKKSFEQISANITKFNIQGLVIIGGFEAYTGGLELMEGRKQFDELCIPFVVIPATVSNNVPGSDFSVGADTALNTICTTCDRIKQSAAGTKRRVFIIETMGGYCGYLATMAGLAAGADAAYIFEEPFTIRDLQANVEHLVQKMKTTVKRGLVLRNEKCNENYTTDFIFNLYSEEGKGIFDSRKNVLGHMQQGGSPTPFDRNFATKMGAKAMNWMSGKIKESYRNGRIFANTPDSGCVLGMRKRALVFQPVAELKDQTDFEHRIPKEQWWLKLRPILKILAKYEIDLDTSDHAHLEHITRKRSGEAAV

[7] = biological target: T2, modified (47 kDa) 6-phosphofructo-1-kinase (PFK-M), sfPFK-M fragments (Homo sapiens, UniProt P08237); assay: in vitro inhibition of purified recombinant modified (cancer-specific) PFK-M fragments
T2 sequence (P08237 1-443 limits assumed): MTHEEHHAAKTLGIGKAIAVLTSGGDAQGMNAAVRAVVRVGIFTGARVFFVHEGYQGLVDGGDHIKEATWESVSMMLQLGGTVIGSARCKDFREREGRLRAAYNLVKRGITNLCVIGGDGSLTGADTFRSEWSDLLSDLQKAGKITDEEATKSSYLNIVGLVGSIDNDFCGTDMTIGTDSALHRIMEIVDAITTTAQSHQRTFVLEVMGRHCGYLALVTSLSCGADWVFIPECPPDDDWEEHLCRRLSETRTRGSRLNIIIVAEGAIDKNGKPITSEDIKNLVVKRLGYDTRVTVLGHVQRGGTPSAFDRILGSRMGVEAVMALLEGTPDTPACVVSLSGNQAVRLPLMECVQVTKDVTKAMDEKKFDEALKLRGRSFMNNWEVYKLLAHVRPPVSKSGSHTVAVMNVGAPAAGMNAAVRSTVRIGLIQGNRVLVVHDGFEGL

O=C(CSc1nnc(-c2ccc3c(c2)OCO3)o1)Nc1ccon1 [Inhibitor No. 3, 2-[(5-benzo[1,3]dioxol-5-yl-1,3,4-oxadiazol-2-yl)sulfanyl]-N-isoxazol-3-yl-acetamide]
time at which lactate production was averted ([1]; inhibitor concentrations lower than 200 µM): about 24 hours | lactate excretion by the Jurkat cells ([1]; preliminary test, 100 µM inhibitor, followed for 48 hours, versus DMSO control): Significantly lowered lactate excretions; also recorded: effectively prevented excretion | dead cells ([2]; Jurkat cells stained with Tripan blue): 3,21±0,27% | effect on growth of Jurkat cells (total cell numbers) ([2]; different concentrations, 72 hours): remarkable reduction of growth rate at concentrations higher than 25 µM | NADH levels [3]: steadily decreased in dose dependent manner | average percentages of dead cells, MDA-MB-231, sequential re-insertion ([4]; sequential addition at 24-hour intervals, 92 hours, average over medium without and with inhibitor): 2,05±0,18% | average percent of dead MDA-MB-231 cells ([4]; single addition, average over control and different concentrations of inhibitor): 7,2±0,47% | viability of the Jurkat cells, long-term ([5]; fed-batch, 18 days): slight decrease of viability | duration of slow reduction of lactate generation rate after the addition of inhibitor ([5]; long term experiment): 24 to 48 h | inhibition of the activity of native nPFK-M enzyme [6]: remarkably reduced also the activity of native nPFK-M enzyme | IC50 [7]: ~15 µM
